Test results as given in patent publication US8735414B2 (priority 2009, dated 2014).

Key:
[1] = tested on: bicistronic HCV replicon (replicon RNA, GenBank Accession No. AJ242654); test: HCV Replicon Assay; type: cell-based; details: Hepatitis C virus, 72 h, read-out: Replicon IC50

Structure (SMILES) | melting point [°C] | IC50 [1] [nM]
C[C@H](NS(=O)(=O)c1ccc(-c2c(C#N)c3cc(F)ccc3n2C2CCCCC2)nc1)C1CC1 [compound 250, 6-(3-cyano-1-cyclohexyl-5-fluoro-1H-indol-2-yl)-N-[(1S)-1-cyclopropylethyl]pyridine-3-sulfonamide] | 161 to 163 | < 500
C[C@H](NS(=O)(=O)c1ccc(-c2c(C#N)c3ccc(F)cc3n2C2CCCC2)nc1)C(F)(F)F [compound 396, 6-(3-cyano-1-cyclopentyl-6-fluoro-1H-indol-2-yl)-N-[(2S)-1,1,1-trifluoropropan-2-yl]pyridine-3-sulfonamide] | 132 to 133 | < 500
C[C@@H](NS(=O)(=O)c1ccc(-c2c(C#N)c3ccc(OC(F)F)cc3n2C2CCCCC2)nc1)C(F)(F)F [compound 195, 6-[3-cyano-1-cyclohexyl-6-(difluoromethoxy)-1H-indol-2-yl]-N-[(2R)-1,1,1-trifluoropropan-2-yl]pyridine-3-sulfonamide] | 170 to 172 | < 500
CCc1cc2c(cc1F)c(C(=O)O)c(-c1ccc(NS(=O)(=O)C(C)(C)C)cn1)n2C1CCCCC1 [compound 998, 2-{5-[(tert-butylsulfonyl)amino]pyridin-2-yl}-1-cyclohexyl-6-ethyl-5-fluoro-1H-indole-3-carboxylic acid] | 224 to 226 | 500 to 2000
N#Cc1c(-c2ccc(S(=O)(=O)NC(CF)CF)cn2)n(CC2CC2)c2cc(OC(F)F)ccc12 [compound 41, 6-[3-cyano-1-(cyclopropylmethyl)-6-(difluoromethoxy)-1H-indol-2-yl]-N-(1,3-difluoropropan-2-yl)pyridine-3-sulfonamide] | 150 to 151 | < 500
C[C@@H](NS(=O)(=O)c1ccc(-c2c(C#N)c3cc(F)c(OC(F)F)cc3n2C2CCC2)nc1)C(F)(F)F [compound 648, 6-[3-cyano-1-cyclobutyl-6-(difluoromethoxy)-5-fluoro-1H-indol-2-yl]-N-[(2R)-1,1,1-trifluoropropan-2-yl]pyridine-3-sulfonamide] | 173 to 175 | < 500
C[C@H](NS(=O)(=O)c1ccc(-c2c(C#N)c3ccc(F)cc3n2C2CCCCC2)nc1)C(F)(F)F [compound 394, 6-(3-cyano-1-cyclohexyl-6-fluoro-1H-indol-2-yl)-N-[(2S)-1,1,1-trifluoropropan-2-yl]pyridine-3-sulfonamide] | 213 to 215 | < 500
CCc1cc2c(cc1F)c(C#N)c(-c1ccc(S(=O)(=O)N[C@@H](C)C(F)(F)F)cn1)n2-c1cccc(C)c1 [compound 1009, 6-[3-cyano-6-ethyl-5-fluoro-1-(3-methylphenyl)-1H-indol-2-yl]-N-[(2S)-1,1,1-trifluoropropan-2-yl]pyridine-3-sulfonamide] | 193 to 198 | < 500
CCS(=O)(=O)Nc1ccc(-c2c(C#N)c3ccc(OC)cc3n2C2CCC2)nn1 [compound 277, N-[6-(3-cyano-1-cyclobutyl-6-methoxy-1H-indol-2-yl)pyridazin-3-yl]ethanesulfonamide] | 212 to 214 | < 500
C[C@@H](NS(=O)(=O)c1ccc(-c2c(C#N)c3ccc(F)cc3n2C2CCCC2)nc1)C(F)(F)F [compound 218, 6-(3-cyano-1-cyclopentyl-6-fluoro-1H-indol-2-yl)-N-[(2R)-1,1,1-trifluoropropan-2-yl]pyridine-3-sulfonamide] | 141 to 144 | < 500
Cc1cc2c(cc1F)c(C#N)c(-c1ncc(S(=O)(=O)NC(CF)CF)cn1)n2C1CCC1 [compound 146, 2-(3-cyano-1-cyclobutyl-5-fluoro-6-methyl-1H-indol-2-yl)-N-(1,3-difluoropropan-2-yl)pyrimidine-5-sulfonamide] | 243 to 249 | < 500
Cc1cc2c(cc1Cl)c(C#N)c(-c1ccc(S(=O)(=O)N[C@H](C)C(F)(F)F)cn1)n2C1CCC1 [compound 445, 6-(5-chloro-3-cyano-1-cyclobutyl-6-methyl-1H-indol-2-yl)-N-[(2R)-1,1,1-trifluoropropan-2-yl]pyridine-3-sulfonamide] | 213 to 215 | < 500
C[C@H](NS(=O)(=O)c1ccc(-c2c(C#N)c3ccc(C4CCC4)cc3n2C2CCC2)nc1)C1CC1 [compound 263, 6-(3-cyano-1,6-dicyclobutyl-1H-indol-2-yl)-N-[(1S)-1-cyclopropylethyl]pyridine-3-sulfonamide] | 124 to 126 | < 500
CCCn1c(-c2ccc(S(=O)(=O)N[C@H](C)C(F)(F)F)cn2)c(C#N)c2cc(F)c(OC(F)F)cc21 [compound 788, 6-[3-cyano-6-(difluoromethoxy)-5-fluoro-1-propyl-1H-indol-2-yl]-N-[(2R)-1,1,1-trifluoropropan-2-yl]pyridine-3-sulfonamide] | 160 to 166 | < 500
CC(C)n1c(-c2ccc(S(=O)(=O)N[C@@H](C)C3CC3)cn2)c(C#N)c2cc(F)ccc21 [compound 604, 6-[3-cyano-5-fluoro-1-(propan-2-yl)-1H-indol-2-yl]-N-[(1S)-1-cyclopropylethyl]pyridine-3-sulfonamide] | 138 to 143 | < 500
CC(C)Cn1c(-c2ccc(S(=O)(=O)N[C@@H](C)C(F)(F)F)cn2)c(C#N)c2cc(F)c(OC(F)F)cc21 [compound 937, 6-[3-cyano-6-(difluoromethoxy)-5-fluoro-1-(2-methylpropyl)-1H-indol-2-yl]-N-[(2S)-1,1,1-trifluoropropan-2-yl]pyridine-3-sulfonamide] | 130 to 134 | < 500
Cc1cc2c(cc1F)c(C#N)c(-c1ccc(S(=O)(=O)N[C@@H](C)C(F)(F)F)cn1)n2-c1ccsc1 [compound 992, 6-[3-cyano-5-fluoro-6-methyl-1-(thiophen-3-yl)-1H-indol-2-yl]-N-[(2S)-1,1,1-trifluoropropan-2-yl]pyridine-3-sulfonamide] | 196 to 203 | < 500
Cc1ccc2c(C#N)c(-c3ccc(S(=O)(=O)NC(CF)CF)cn3)n(C3CCCCC3)c2c1 [compound 513, 6-(3-cyano-1-cyclohexyl-6-methyl-1H-indol-2-yl)-N-(1,3-difluoropropan-2-yl)pyridine-3-sulfonamide] | 195 to 203 | < 500
CC(C)n1c(-c2ccc(S(=O)(=O)NC3CCC3)cn2)c(C#N)c2ccc(OC(F)F)cc21 [compound 2, 6-[3-cyano-6-(difluoromethoxy)-1-(propan-2-yl)-1H-indol-2-yl]-N-cyclobutylpyridine-3-sulfonamide] | 130 to 132 | < 500
CCc1cc2c(cc1F)c(C#N)c(-c1ccc(S(=O)(=O)N[C@@H](C)C(F)(F)F)cn1)n2C1CCC1 [compound 640, 6-(3-cyano-1-cyclobutyl-6-ethyl-5-fluoro-1H-indol-2-yl)-N-[(2S)-1,1,1-trifluoropropan-2-yl]pyridine-3-sulfonamide] | 205 to 206 | < 500
Cc1cc2c(cc1F)c(C(N)=O)c(-c1ccc(S(=O)(=O)NC(C)(C)C)cn1)n2C1CCCCC1 [compound 1115, 2-[5-(tert-butylsulfamoyl)pyridin-2-yl]-1-cyclohexyl-5-fluoro-6-methyl-1H-indole-3-carboxamide] | 274.5 to 275.6 | < 500
CCn1c(-c2ncc(S(=O)(=O)NC(C)C)cn2)c(C#N)c2cc(OC(F)F)ccc21 [compound 242, 2-[3-cyano-5-(difluoromethoxy)-1-ethyl-1H-indol-2-yl]-N-(propan-2-yl)pyrimidine-5-sulfonamide] | 180 to 185 | 500 to 2000
Cc1cc2c(cc1F)c(C(=O)NC(C)C)c(-c1ccc(S(=O)(=O)N[C@@H](C)C(F)(F)F)cn1)n2C1CCCC1 [compound 763, 1-cyclopentyl-5-fluoro-6-methyl-N-(propan-2-yl)-2-(5-{[(2S)-1,1,1-trifluoropropan-2-yl]sulfamoyl}pyridin-2-yl)-1H-indole-3-carboxamide] | 234 to 236 | 500 to 2000
N#Cc1c(-c2ccc(NS(=O)(=O)C3CC3)cn2)n(CC2CC2)c2cc(OC(F)F)ccc12 [compound 270, N-{6-[3-cyano-1-(cyclopropylmethyl)-6-(difluoromethoxy)-1H-indol-2-yl]pyridin-3-yl}cyclopropanesulfonamide] | 156 to 158 | 2000 to 5000
Cc1ccc2c(C#N)c(-c3ccc(S(=O)(=O)N[C@@H](C)C(F)(F)F)cn3)n(CC3CC3)c2c1 [compound 353, 6-[3-cyano-1-(cyclopropylmethyl)-6-methyl-1H-indol-2-yl]-N-[(2S)-1,1,1-trifluoropropan-2-yl]pyridine-3-sulfonamide] | 165 to 168 | < 500
C[C@H](NS(=O)(=O)c1cnc(-c2c(C#N)c3ccc(F)cc3n2C2CCC2)nc1)C1CC1 [compound 496, 2-(3-cyano-1-cyclobutyl-6-fluoro-1H-indol-2-yl)-N-[(1S)-1-cyclopropylethyl]pyrimidine-5-sulfonamide] | 207 to 208 | 500 to 2000
Cc1ccc2c(c1)c(C#N)c(-c1ccc(S(=O)(=O)N[C@@H](C)C(F)(F)F)cn1)n2-c1ncc(F)cn1 [compound 948, 6-[3-cyano-1-(5-fluoropyrimidin-2-yl)-5-methyl-1H-indol-2-yl]-N-[(2S)-1,1,1-trifluoropropan-2-yl]pyridine-3-sulfonamide] | 202 to 207 | < 500
C[C@H](NS(=O)(=O)c1ccc(-c2c(C#N)c3ccc(C(F)(F)F)cc3n2-c2cnccn2)nc1)C(F)(F)F [compound 951, 6-[3-cyano-1-(pyrazin-2-yl)-6-(trifluoromethyl)-1H-indol-2-yl]-N-[(2S)-1,1,1-trifluoropropan-2-yl]pyridine-3-sulfonamide] | 208 to 213 | < 500
